One may read the AUC as the area under the concentration-time curve, a measure of exposure. One may read the Cmax as the maximum level reached in the sampled fluid or tissue.

The values below come from article PMC10899196, “Protective effect of microbisporicin (NAI-107) against vancomycin resistant Enterococcus faecium infection in a Galleria mellonella model” (Scientific Reports, 2024).

The test system of series [1] is van-B type E. faecium (ID 553). Briefly: microbe, parasite or virus in culture. Format: cell-based, Enterococcus faecium. How it is done: Sixty-six bacteriocins from Syngulon PARAGEN collection and NAI-107 from Naicons, SRL were screened using the resazurin microtiter assay (REMA)[30],[31]. The MIC for the antimicrobials listed in Table 1 were determined according to the clinical and laboratory standard institute (CLSI) guidelines and the European Committee on Antimicrobial Susceptibility Testing (EUCAST) broth microdilution reference method for MIC determination in E. faecium[32],[33].

Another series relates to vanA E. faecium 569. The conditions noted are these: administered intravenously to neutropenic mice; cited from earlier work. From the text:
(§1) Bacteriocins have gained considerable attention as potential alternatives to traditional antibiotics due to their narrow-spectrum activity and a lower likelihood of inducing resistance[11],[12]. Most leaderless bacteriocins such as Lacticin Q (53 aa), Lacticin Z (53 aa), and Garvicin KS have proven to have inhibitory effects against a range of genera such as Listeria, Staphylococcus and ...

A further series relates to vanA E. faecalis A533. As to conditions: administered intravenously to neutropenic mice; cited from earlier work.
Description: as §1

Series [2] deals with methicillin-resistant Staphylococcus aureus. As to conditions: cited from earlier work. From the text:
(§2) There are a number of study limitations. […] This hypothesis was motivated by the growing problem of VRE infections. We acknowledge the limitations of this hypothesis. […] This would be of clinica ...

For another series, the system named is G. mellonella. As to conditions: G. mellonella model; cited from earlier work.
Description: as §2

Series [3] has as its system vanB-type E. faecium (ID 553). Briefly: Galleria mellonella E. faecium infection model, in vivo efficacy. How it is done: G. mellonella larvae were treated with a range of doses of vanB-type E. faecium (ID 553) (1 × 10^6–1 × 10^9 CFU/mL) and observed for death alongside phosphate buffer saline (PBS) controls.
Injection of G. mellonella was carried out as described in Dijokaite et al.[21]. The last larval stage of G. mellonella (Terramania, Arnhem, NL) were used for the experiments. Only non-discoloured, healthy larvae were selected. The larvae were injected in the last left proleg using 0.3 mL U-100 insulin syringes (BD Micro-Fine).
Each test group consisted of two groups of 10 larvae per concentration of each bacteriocin or linezolid (10 µg/mL). 30 µl of PBS containing 2.7 × 10^7 CFU E. faecium was used to infect the G. mellonella larva. The larvae were treated with various concentrations of bacteriocins. One positive and two negative control groups were used. The positive control group received only the E. faecium inoculum in PBS. Out of the two negative control groups, one group underwent no manipulation, while the other group was injected with PBS only. Each antimicrobial agent was tested in a single experiment using larvae from the same batch and tested at the same time under identical conditions. Each group were incubated in sterile Petri dishes at 37 °C with a 5% (v/v) CO2 atmosphere for the length of the experiments.
Data were analyzed using GraphPad Prism v9. Survival plots were created using Kaplan–Meier survival curves. Statistical analysis was carried out using the Mantel-Cox test to compare survival curves between the PBS controls and each treatment arm. A P value of < 0.05 was considered statistically significant.

The conditions of series [4]: cited from earlier work. The text has this:
This characteristic implies that NAI-107 would require parenteral administration in multiple doses per day for therapeutic use.

Where [5] appears, read: Enterococcus faecium, micro broth dilution method, van-B type E. faecium (ID 553), read-out: MIC.
The mark [6] stands for this setting: micro broth dilution method, van-B type E. faecium (ID 553).
Where [7] appears, read: micro broth dilution method, van-B type E. faecium (ID 553), molar value from deduced molecular weight.
[8] abbreviates: mouse, single subcutaneous dosing of 5, 20 and 80 mg/kg.

In brackets after ≈: the same amount, converted by molar mass. Read-outs that look alike come from different tables or passages of the source. Ends that are not written are not given here. Where only a bound is given, the exact number is not on record here.

As to `CC1(C)S[C@@H]2[C@H](NC(=O)[C@H](N)c3ccccc3)C(=O)N2[C@H]1C(=O)O` [Ampicillin, reference compound], the MIC in series [1] (setting [5]) was ≥ 32 µg/mL.

Regarding `CN(C)[C@@H]1C(O)=C(C(N)=O)C(=O)[C@@]2(O)C(O)=C3C(=O)c4c(O)cccc4[C@@](C)(O)[C@H]3C[C@@H]12` [Tetracycline, reference compound], the MIC in series [1] (setting [5]) worked out at 0.25 µg/mL (≈ 0.563 µM).

Consider `CC[C@H]1OC(=O)[C@H](C)[C@@H](O[C@H]2C[C@@](C)(OC)[C@@H](O)[C@H](C)O2)[C@H](C)[C@@H](O[C@@H]2O[C@H](C)C[C@H](N(C)C)[C@H]2O)[C@](C)(O)C[C@@H](C)C(=O)[C@H](C)[C@@H](O)[C@]1(C)O` [Erythromycin, reference compound], for which, in series [1] (setting [5]), the MIC is ≥ 8 µg/mL.

`CC(=O)NC[C@H]1CN(c2ccc(N3CCOCC3)c(F)c2)C(=O)O1` [Linezolid, reference compound]: the MIC in series [1] (setting [5]) was found to be 2 µg/mL (≈ 5.93 µM).

`CN[C@H](CC(C)C)C(=O)N[C@H]1C(=O)N[C@@H](CC(N)=O)C(=O)N[C@H]2C(=O)N[C@H]3C(=O)N[C@H](C(=O)N[C@H](C(=O)O)c4cc(O)cc(O)c4-c4cc3ccc4O)[C@H](O)c3ccc(c(Cl)c3)Oc3cc2cc(c3O[C@@H]2O[C@H](CO)[C@@H](O)[C@H](O)[C@H]2O[C@H]2C[C@](C)(N)[C@H](O)[C@H](C)O2)Oc2ccc(cc2Cl)[C@H]1O` [Vancomycin] gave an MIC in series [1] (Enterococcus faecium) of 64 µg/mL (≈ 44.2 µM).

Turning to “MSWLNFLKYIAKYGKKAVSAAWKYKGKVLEWLNVGPTLEWVWQKLKKIAGL [Aureocin A53]”, the MIC in series [1] (setting [6]) worked out at 1.56 µg/mL; in series [1] (setting [7]), 0.2609 µM/L.

For `CNC(C)C1CCC(N)C(OC2C(N)CC(N)C(OC3OCC(C)(O)C(NC)C3O)C2O)O1` (stereo not drawn) [Gentamicin, reference compound], the MIC in series [1] (setting [5]) was ≥ 32 µg/mL.

With Microbisporicin, the in vivo efficacy result in the series on vanA E. faecium 569 was “effective”. Moreover, the in vivo efficacy result in the series on vanA E. faecalis A533 was “effective”. In addition, in series [2], the “efficacy against methicillin-resistant Staphylococcus aureus in rat model” value was “efficacious” and the “toxicity in rat model” value is listed as “non-toxic”. In addition, the “concentration up to which no toxicity was exhibited” value in the series on G. mellonella is ≥ 64000 ng/mL. Also, in series [3] (16 µg/mL group, 120 h), the “mortality compared with the linezolid (10 µg/mL) treated group” value was “significantly lower”. Besides, the “dose groups with the lowest mortality” value in series [3] (doses tested 2, 4, 8 and 16 µg/mL, 120 h) is 8 µg/mL and 16 µg/mL. The “in vivo efficacy (survival of infected larvae)” value in series [3] (larvae infected with 2.7 × 10^7 CFU E. faecium in 30 µl PBS, 20 larvae per group, 2-16 µg/mL, 120 h at 37 °C) is “effective in vivo at all doses tested”. Moreover, the MIC in series [1] (setting [6]) was 4 µg/mL. The MIC in series [1] (setting [7]) was determined as 0.00178 µM/L. The bioavailability result in series [4] (after intramuscular, intravenous and subcutaneous administration) was “good bioavailability”. Further, in series [4] (setting [8]), the AUC is 27000 to 276000 ng·h/mL, the Cmax is 4000 to 22000 ng/mL and the elimination half-lives was 4.2 to 8.2 h. Also, in series [4] (oral), the oral absorption entry is recorded as “not absorbed orally”.

Take Teicoplanin [reference compound]: the MIC in series [1] (setting [6]) came out at 0.5 µg/mL.
